Reference: BindingDB's records for doi:10.1021/jm00108a031 (Roche Research Center, 1991)

Experiment: In vitro for platelet activating factor receptor antagonist activity in a binding assay using washed whole dog platelets.

Row | SMILES | IC50 [nM]
1 | Cc1nnc2n1-c1sc(-c3cc(=O)[nH][nH]3)cc1C(c1ccccc1Cl)=NC2 | 1000
2 | Cc1cc(C#Cc2cc3c(s2)-n2c(C)nnc2CN=C3c2ccccc2Cl)cc2c1OC(C)(C)C2 | 400
3 | Cc1cc(CCc2cc3c(s2)-n2c(C)nnc2CN=C3c2ccccc2Cl)cc2c1OC(C)(C)C2 | 400
4 | Cc1nnc2n1-c1sc(C#CCO)cc1C(c1ccccc1Cl)=NC2 | 180
5 | Cc1nnc2n1-c1sc(CCc3ccc(C4CCCCC4)cc3)cc1C(c1ccccc1Cl)=NC2 | 35
6 | Cc1nnc2n1-c1sc(C#Cc3ccc(C4CCCCC4)cc3)cc1C(c1ccccc1Cl)=NC2 | 300
7 | Cc1nnc2n1-c1sc(C(CC(=O)N3CCOCC3)N=N)cc1C(c1ccccc1Cl)=NC2 (configuration not stated) | 420
8 | Cc1nnc2n1-c1sc(Br)cc1C(c1ccccc1Cl)=NC2 [2-Bromo-4-(2-chloro-phenyl)-9-methyl-6H-1-thia-5,7,8,9a-tetraaza-cyclopenta[e]azulene] | 300
9 | Cc1nnc2n1-c1sc(CCc3ccc4c(c3)CCO4)cc1C(c1ccccc1Cl)=NC2 | 20
10 | Cc1nnc2n1-c1sc(C#Cc3ccc4c(c3)CCC4)cc1C(c1ccccc1Cl)=NC2 | 380
11 | Cc1nnc2n1-c1sc(/C=C\c3ccc4c(c3)CCC4)cc1C(c1ccccc1Cl)=NC2 | 110
12 | Cc1nnc2n1-c1sc(/C=C\c3ccc(C4CCCCC4)cc3)cc1C(c1ccccc1Cl)=NC2 | 120
13 | Cc1nnc2n1-c1sc(CCc3ccc(-c4ccccn4)s3)cc1C(c1ccccc1Cl)=NC2 | 8
14 | Cc1nnc2n1-c1sc(CCc3ccc4c(c3)CCC4)cc1C(c1ccccc1Cl)=NC2 | 20
15 | Cc1nnc2n1-c1sc(C#Cc3ccccn3)cc1C(c1ccccc1Cl)=NC2 | 250
16 | C#Cc1cc2c(s1)-n1c(C)nnc1CN=C2c1ccccc1Cl | 10
17 | Cc1nnc2n1-c1sc(-c3nn[nH]c3C(=O)N3CCOCC3)cc1C(c1ccccc1Cl)=NC2 | 1000
18 | CCCCc1ccc(CCc2cc3c(s2)-n2c(C)nnc2CN=C3c2ccccc2Cl)cc1 | 10
19 | CCCCc1ccc(C#Cc2cc3c(s2)-n2c(C)nnc2CN=C3c2ccccc2Cl)cc1 | 650
20 | CCCCc1ccc(/C=C\c2cc3c(s2)-n2c(C)nnc2CN=C3c2ccccc2Cl)cc1 | 10
21 | Cc1nnc2n1-c1sc(CCc3ccc(CC(C)C)cc3)cc1C(c1ccccc1Cl)=NC2 | 30
22 | Cc1nnc2n1-c1sc(C#C[Si](C)(C)C)cc1C(c1ccccc1Cl)=NC2 | 20
23 | Cc1nnc2n1-c1sc(C#Cc3ccc4c(c3)CCO4)cc1C(c1ccccc1Cl)=NC2 | 420
24 | Cc1nnc2n1-c1sc(C#Cc3ccc(-c4ccccn4)s3)cc1C(c1ccccc1Cl)=NC2 | 60
25 | Cc1nnc2n1-c1sc(CCc3ccc(-n4ccnc4)cc3)cc1C(c1ccccc1Cl)=NC2 | 100
26 | Cc1nnc2n1-c1sc(/C=C\C(=O)N3CCOCC3)cc1C(c1ccccc1Cl)=NC2 | 180
27 | Cc1nnc2n1-c1sc(/C=C\c3ccc(CC(C)C)cc3)cc1C(c1ccccc1Cl)=NC2 | 80

Experiment: Compound tested in vitro for Platelet activating factor receptor antagonist activity in a binding assay using washed whole dog platelets

Row | SMILES | IC50 [nM]
28 | Cc1nnc2n1-c1sc(C#Cc3ccc(CC(C)C)cc3)cc1C(c1ccccc1Cl)=NC2 | 100
29 | Cc1nnc2n1-c1sc(/C=C\c3ccccn3)cc1C(c1ccccc1Cl)=NC2 | 400
30 | Cc1nnc2n1-c1sc(C#Cc3cccc4ccccc34)cc1C(c1ccccc1Cl)=NC2 | 150
31 | Cc1nnc2n1-c1sc(C#CC(=O)N3CCOCC3)cc1C(c1ccccc1Cl)=NC2 | 260
32 | Cc1nnc2n1-c1sc(C#Cc3ccccc3)cc1C(c1ccccc1Cl)=NC2 | 100
